Measurements taken from US10548999B2, “Method and apparatus for sterilizing preform” (DAI NIPPON PRINTING CO., LTD., priority 2012, dated 2020).
Like-named read-outs stand apart in the source and are kept apart here.

Experiments:
[1] = tested on: BaciLLus subtiLis
Description: (§1) The first chamber 5a and the second chamber 6a have size of 1000 mm width, and 1500 mm length, and 200 mm height, respectively. Preforms, each being formed into a bottle of 500 ml, were supplied to the conveyer by the number of 860 bottles/min., and the conveyer was driven at a predetermined speed.
(§2) In the above Table 4, term “B” is an abbreviated term of “BaciLLus subtiLis”, and “A.nig.” is an abbreviated term of “AspergiLLus niger”. “D” is a D-valve indicating the sterilization effect.

[2] = tested on: AspergiLLus niger
Description: as §1, §2

[3] = tested on: BaciLLus subtiLis; conditions: then superheated steam 300° C. 5 sec. to inner surface
Description: (§3) Mist of hydrogen peroxide water was produced by supplying hydrogen peroxide water of 35% concentration and pressurized air to a two-fluid spray, the thus produced mist was mixed with hot air having temperature of 60° C., and then, the mist of the hydrogen peroxide water was sprayed inside a chamber through a nozzle. The chamber has a size of 600 mm width, and a conveyer has 1.5 m length. Preforms, each being formed into a bottle of […], were supplied to the conveyer by the number of 860 bottles/min., and the conveyer was driven at a speed of 0.2/sec. […] Furthermore, preforms, each being formed into a bottle of […], were supplied by the number of 250 bottles/min., and the same operation was performed. […] Such preforms were subjected to the following treatment.
(§4) Superheated steam of flow amount of 0.7 g/sec. generated by heating water by a superheated steam generator of induction heating system was sprayed to each inner surface of the preform from a nozzle having inner diameter of 8 mm at blasting temperature of 300° C. for 5 sec.
(§5) In the above Table 1, term “B” is an abbreviated term of “BaciLLus subtiLis”, and “A.nig.” is an abbreviated term of “AspergiLLus niger”. “D” is a D-valve indicating the sterilizing effect.

[4] = tested on: AspergiLLus niger; conditions: then superheated steam 300° C. 5 sec. to inner surface
Description: as §3, §4, §5

[5] = tested on: BaciLLus subtiLis; remark: listed apart in the source
Description: The hydrogen peroxide water adhered to each preform having inner volume of 500 ml for bottle as in the first example 1. Furthermore, superheated steam of flow amount of 0.7 g/sec. generated by heating water by a superheated steam generator of an induction heating system was sprayed to the inner surface of each preform from a nozzle having inner diameter of 8 mm at blasting temperature in a range of 180 to 550° C. for 10 to 3 sec.
Further, it is to be noted that, in the above Table 3, the sterilization effect is shown with [∘] (good) in the case where the D-value with respect to BaciLLus subtiLis is not less than 6, and the other cases are shown with [x] (not good). With respect to the deformation of the inner diameter, in the case where the inner diameter of the preform is deformed by less than 0.05 mm is shown [∘] (good), and the other cases are shown with [x] (not good).

[6] = tested on: BaciLLus subtiLis; conditions: 35% hydrogen peroxide water mist mixed with 60° C. hot air, about 50 mg per preform
Description: (§6) Mist of hydrogen peroxide water was produced by supplying hydrogen peroxide water of 35% concentration and pressurized air to a two-fluid spray, the thus produced mist was mixed with hot air having temperature of 60° C., and then, the mist of the hydrogen peroxide water was sprayed inside a chamber through a nozzle. The chamber is a box-shaped member, having no bottom, having a size of 1,000 mm width, 1,500 mm length and 200 mm height, and the box-shaped chamber was set to a predetermined position on the conveyer having 600 mm width. Preforms of the number of 860 bottles/min., each being formed into a bottle of […], were supplied to the conveyer, which is driven at a speed of 0.2/sec.

[7] = preform molded into a bottle and filled with water
Description: as §6

[8] = hydrogen peroxide 3%, hot air NO, superheated steam 400° C., 0.2 m/sec.
[9] = preform for 2 L, 35% mist about 150 mg
[10] = preform for 500 mL, 35% mist about 50 mg

## OO [hydrogen peroxide]
[1]; hydrogen peroxide 3%, hot air 100° C., superheated steam 200° C., 0.2 m/sec.
  sterilization effect B. sub.: 5.3D
[1]; hydrogen peroxide 3%, hot air 100° C., superheated steam 400° C., 0.2 m/sec.
  sterilization effect B. sub.: 6.0D
[1]; [8]
  sterilization effect B. sub.: 4.0D
[1]; hydrogen peroxide 10%, hot air 80° C., superheated steam 400° C., 0.2 m/sec.
  sterilization effect B. sub.: 6.0D
[1]; hydrogen peroxide 10%, hot air NO, superheated steam 400° C., 0.5 m/sec.
  sterilization effect B. sub.: 5.5D
[1]; preheating performed and superheated steam added with hydrogen peroxide blasted (summary of Table 4)
  sterilizing effect with respect to the B.sub: more than 6.0 D
[2]; [8]
  sterilization effect A. niger: 6.0D
[2]; superheated steam added with hydrogen peroxide, regardless of the preheating by hot air (summary of Table 4)
  sterilizing effect with respect to the A. niger: more than 6.0 D
[3]; [9]
  sterilizing effect B. sub.: 3.0D
[3]; [10]
  sterilizing effect B. sub.: 3.1D
[4]; [9]
  sterilizing effect A. nig: More than 6.0D
[4]; [10]
  sterilizing effect A. nig: More than 6.0D
[5]; hydrogen peroxide water as in Example 1, then superheated steam 180° C., 10 sec.
  Sterilizing Effect: X (the other cases are shown with [x] (not good))
[5]; hydrogen peroxide water as in Example 1, then superheated steam 250° C., 6 sec.
  Sterilizing Effect: ◯ ([∘] (good) in the case where the D-value with respect to BaciLLus subtiLis is not less than 6)
[5]; hydrogen peroxide water as in Example 1, then superheated steam 350° C., 4 sec.
  Sterilizing Effect: ◯ ([∘] (good) in the case where the D-value with respect to BaciLLus subtiLis is not less than 6)
[5]; hydrogen peroxide water as in Example 1, then superheated steam 450° C., 3 sec.
  Sterilizing Effect: ◯ ([∘] (good) in the case where the D-value with respect to BaciLLus subtiLis is not less than 6)
[5]; hydrogen peroxide water as in Example 1, then superheated steam 550° C., 3 sec.
  Sterilizing Effect: ◯ ([∘] (good) in the case where the D-value with respect to BaciLLus subtiLis is not less than 6)
[6]; inner surface of the preform
  sterilizing power: 4.2 D
[6]; outer surface of the preform
  sterilizing power: 5.3 D
[7]
  remaining amount of the hydrogen peroxide: 0.012 ppm
